Measurements taken from US8846698B2, “Pyrrolo[2,3-d]pyrimidine tropomysin-related kinase inhibitors” (Pfizer Limited, priority 2011, dated 2014).

Target: TRKA (Homo sapiens (Human), UniProt P04629)
Test: Isolated TRK enzyme assay (HTRF KinEASE-TK), TRKA
Format: biochemical
Settings: read-out: Trka enzyme (IC50)

Chain of TRKA (P04629 441-796): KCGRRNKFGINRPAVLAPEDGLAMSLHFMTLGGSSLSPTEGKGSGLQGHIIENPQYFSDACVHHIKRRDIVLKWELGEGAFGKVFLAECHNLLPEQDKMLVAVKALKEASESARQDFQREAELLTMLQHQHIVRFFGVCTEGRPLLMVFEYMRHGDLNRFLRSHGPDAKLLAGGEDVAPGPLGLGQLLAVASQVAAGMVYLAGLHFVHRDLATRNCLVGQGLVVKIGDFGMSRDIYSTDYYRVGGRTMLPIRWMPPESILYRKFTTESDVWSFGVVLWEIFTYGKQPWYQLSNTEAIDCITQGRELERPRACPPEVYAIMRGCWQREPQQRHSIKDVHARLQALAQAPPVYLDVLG

| SMILES | IC50 |
| --- | --- |
| CC(C)(CO)n1cc(C(=O)c2cncc(NC(=O)Cc3ccc(OC(F)F)cc3)c2)c2cnc(N)nc21 [Example 565, N-{5-[2-Amino-7-(2-hydroxy-1,1-dimethyl-ethyl)-7H-pyrrolo[2,3-d]pyrimidine-5-carbonyl]-pyridin-3-yl}-2-(4-difluoromethoxy-phenyl)-acetamide] | 17.9 nM |
| CCc1nc(C)c(C(=O)Nc2cncc(C(=O)c3cn(C(C)C)c4ncncc34)c2)o1 [Example 484, 2-Ethyl-4-methyl-oxazole-5-carboxylic acid [5-(7-isopropyl-7H-pyrrolo[2,3-d]pyrimidine-5-carbonyl)-pyridin-3-yl]-amide] | 192 nM |
| CC(C)n1cc(C(=O)c2cncc(NC(=O)Cc3ccc(Cl)c(Cl)c3)c2)c2cncnc21 [Example 68, 2-(3,4-dichlorophenyl)-N-{5-[(7-isopropyl-7H-pyrrolo[2,3-d]pyrimidin-5-yl)carbonyl]pyridin-3-yl}acetamide] | 12.1 nM |
| Nc1ncc2c(C(=O)c3cncc(NC(=O)Cc4ccc(Cl)cn4)c3)cn(C34CC(C3)C4)c2n1 [Example 583, N-[5-(2-Amino-7-bicyclo[1.1.1]pent-1-yl-7H-pyrrolo[2,3-d]pyrimidine-5-carbonyl)-pyridin-3-yl]-2-(5-chloro-pyridin-2-yl)-acetamide] | 0.681 nM |
| CC(C)(C)n1cc(C(=O)c2cncc(NC(=O)Cc3cccc(S(C)(=O)=O)c3)c2)c2cncnc21 [Example 200, N-{5-[(7-tert-butyl-7H-pyrrolo[2,3-d]pyrimidin-5-yl)carbonyl]pyridin-3-yl}-2-[3-(methylsulfonyl)phenyl]acetamide] | 10.1 nM |
| COCc1ccc(CC(=O)Nc2cncc(C(=O)c3cn(C)c4ncncc34)c2)cc1 [Example 333, 2-[4-(methoxymethyl)phenyl]-N-{5-[(7-methyl-7H-pyrrolo[2,3-d]pyrimidin-5-yl)carbonyl]pyridin-3-yl}acetamide] | 9800 nM |
| COCC(C)(C)n1cc(C(=O)c2cncc(NC(=O)Cc3ccc(F)cc3)c2)c2cncnc21 [Example 539, 2-(4-Fluoro-phenyl)-N-{5-[7-(2-methoxy-1,1-dimethyl-ethyl)-7H-pyrrolo[2,3-d]pyrimidine-5-carbonyl]-pyridin-3-yl}-acetamide] | 4.08 nM |
| COc1ccc(CC(=O)Nc2cncc(C(=O)c3cn(C(C)C)c4ncncc34)c2)cn1 [Example 152, N-{5-[(7-isopropyl-7H-pyrrolo[2,3-d]pyrimidin-5-yl)carbonyl]pyridin-3-yl}-2-(6-methoxypyridin-3-yl)acetamide] | 82.5 nM |
| Cc1[nH]c2c(F)cccc2c1CC(=O)Nc1cncc(C(=O)c2cn(C(C)C)c3ncncc23)c1 [Example 109, 2-(7-fluoro-2-methyl-1H-indol-3-yl)-N-{5-[(7-isopropyl-7H-pyrrolo[2,3-d]pyrimidin-5-yl)carbonyl]pyridin-3-yl}acetamide] | 65.1 nM |
| Cc1nc(Cl)nn1CC(=O)Nc1cncc(C(=O)c2cn(C(C)C)c3ncncc23)c1 [Example 369, 2-(3-Chloro-5-methyl-1,2,4-triazol-1-yl)-N-[5-(7-isopropyl-7H-pyrrolo[2,3-d]pyrimidine-5-carbonyl)-pyridin-3-yl]-acetamide] | 3000 nM |
| CC(C)n1cc(C(=O)c2cncc(NC(=O)c3ccncc3)c2)c2cncnc21 [Example 489, N-[5-(7-Isopropyl-7H-pyrrolo[2,3-d]pyrimidine-5-carbonyl)-pyridin-3-yl]-isonicotinamide] | 9800 nM |
| Cc1csc2nc(CC(=O)Nc3cncc(C(=O)c4cn(C(C)C)c5ncncc45)c3)cn12 [Example 373, N-[5-(7-Isopropyl-7H-pyrrolo[2,3-d]pyrimidine-5-carbonyl)-pyridin-3-yl]-2-(3-methyl-imidazo[2,1-b]thiazol-6-yl)-acetamide] | 813 nM |
| CC(C)n1cc(C(=O)c2cncc(NC(=O)c3cc(C4CC4)on3)c2)c2cncnc21 [Example 496, 5-Cyclopropyl-isoxazole-3-carboxylic acid [5-(7-isopropyl-7H-pyrrolo[2,3-d]pyrimidine-5-carbonyl)-pyridin-3-yl]-amide] | 199 nM |
| CC(C)n1cc(C(=O)c2cncc(NC(=O)Cn3cnc4ccccc43)c2)c2cncnc21 [Example 133, 2-(1H-benzimidazol-1-yl)-N-{5-[(7-isopropyl-7H-pyrrolo[2,3-d]pyrimidin-5-yl)carbonyl]pyridin-3-yl}acetamide] | 681 nM |
| C[C@@H](CO)n1cc(C(=O)c2cncc(NC(=O)Cc3cccc(C(F)(F)F)c3)c2)c2cncnc21 [Example 204, N-[5-({7-[(1S)-2-hydroxy-1-methylethyl]-7H-pyrrolo[2,3-d]pyrimidin-5-yl}carbonyl)pyridin-3-yl]-2-[3-(trifluoromethyl)phenyl]acetamide] | 4.24 nM |
| CC(C)n1cc(C(=O)c2cncc(NC(=O)c3cnn4c3CCC4)c2)c2cncnc21 [Example 471, 5,6-Dihydro-4H-pyrrolo[1,2-b]pyrazole-3-carboxylic acid [5-(7-isopropyl-7H-pyrrolo[2,3-d]pyrimidine-5-carbonyl)-pyridin-3-yl]-amide] | 751 nM |
| O=C(Cc1ccc(Cl)cn1)Nc1cncc(C(=O)c2cn(C(CO)CO)c3ncncc23)c1 [Example 282, 2-(5-chloropyridin-2-yl)-N-[5-({7-[2-hydroxy-1-(hydroxymethyl)ethyl]-7H-pyrrolo[2,3-d]pyrimidin-5-yl}carbonyl)pyridin-3-yl]acetamide] | 1010 nM |

| SMILES | IC50 |
| --- | --- |
| CC(C)n1cc(C(=O)c2cncc(NC(=O)c3n[nH]c4c3CCC4)c2)c2cncnc21 [Example 419, 1,4,5,6-Tetrahydro-cyclopentapyrazole-3-carboxylic acid [5-(7-isopropyl-7H-pyrrolo[2,3-d]pyrimidine-5-carbonyl)-pyridin-3-yl]-amide] | 15.1 nM |
| CC(C)n1cc(C(=O)c2cncc(NC(=O)c3ccc4cc[nH]c4n3)c2)c2cncnc21 [Example 418, 1H-Pyrrolo[2,3-b]pyridine-6-carboxylic acid [5-(7-isopropyl-7H-pyrrolo[2,3-d]pyrimidine-5-carbonyl)-pyridin-3-yl]-amide] | 40.2 nM |
| CC(C)n1cc(C(=O)c2cncc(NC(=O)c3nccc4occc34)c2)c2cncnc21 [Example 380, Furo[3,2-c]pyridine-4-carboxylic acid [5-(7-isopropyl-7H-pyrrolo[2,3-d]pyrimidine-5-carbonyl)-pyridin-3-yl]-amide] | 422 nM |
| CC(C)n1cc(C(=O)c2cncc(NC(=O)Cn3cc(C(F)(F)F)nn3)c2)c2cnc(N)nc21 [Example 240, N-{5-[(2-amino-7-isopropyl-7H-pyrrolo[2,3-d]pyrimidin-5-yl)carbonyl]pyridin-3-yl}-2-[4-(trifluoromethyl)-1H-1,2,3-triazol-1-yl]acetamide] | 19.2 nM |
| CC(C)n1cc(C(=O)c2cncc(NC(=O)c3ccc4cccnc4n3)c2)c2cncnc21 [Example 467, 1,8-Naphthyridine-2-carboxylic acid[5-(7-isopropyl-7H-pyrrolo[2,3-d]pyrimidine-5-carbonyl)-pyridin-3-yl]-amide] | 538 nM |
| CC(C)n1cc(C(=O)c2cncc(NC(=O)Cn3ccc(-c4cccs4)n3)c2)c2cncnc21 [Example 120, N-{5-[(7-isopropyl-7H-pyrrolo[2,3-d]pyrimidin-5-yl)carbonyl]pyridin-3-yl}-2-[3-(2-thienyl)-1H-pyrazol-1-yl]acetamide] | 53 nM |
| CC(C)n1cc(C(=O)c2cncc(NC(=O)Cc3ccc(Cl)cn3)c2)c2cnc(N)nc21 [Example 242, N-{5-[(2-amino-7-isopropyl-7H-pyrrolo[2,3-d]pyrimidin-5-yl)carbonyl]pyridin-3-yl}-2-(5-chloropyridin-2-yl)acetamide] | 8.71 nM |
| Cc1ccccc1CCC(=O)Nc1cncc(C(=O)c2cn(C)c3ncncc23)c1 [Example 326, 3-(2-methylphenyl)-N-{5-[(7-methyl-7H-pyrrolo[2,3-d]pyrimidin-5-yl)carbonyl]pyridin-3-yl}propanamide] | 2980 nM |
| O=C(Cc1ccc(Cl)cc1)Nc1cncc(C(=O)c2cn(C3COC3)c3ncncc23)c1 [Example 219, 2-(4-chlorophenyl)-N-{5-[(7-oxetan-3-yl-7H-pyrrolo[2,3-d]pyrimidin-5-yl)carbonyl]pyridin-3-yl}acetamide] | 286 nM |
| CC(C)n1cc(C(=O)c2cncc(NC(=O)c3ccn4ccnc4c3)c2)c2cncnc21 [Example 432, Imidazo[1,2-a]pyridine-7-carboxylicacid [5-(7-isopropyl-7H-pyrrolo[2,3-d]pyrimidine-5-carbonyl)-pyridin-3-yl]amide] | 2790 nM |
| Cn1cc(C(=O)c2cncc(NC(=O)Cc3cccc(Cl)c3)c2)c2cncnc21 [Example 197, 2-(3-chlorophenyl)-N-{5-[(7-methyl-7H-pyrrolo[2,3-d]pyrimidin-5-yl)carbonyl]yridine-3-yl}acetamide] | 430 nM |
| Cn1cc(C(=O)c2cncc(NC(=O)Cc3cc(F)c(F)cc3F)c2)c2cncnc21 [Example 184, N-{5-[(7-methyl-7H-pyrrolo[2,3-d]pyrimidin-5-yl)carbonyl]pyridin-3-yl}-2-(2,4,5-trifluorophenyl)acetamide] | 579 nM |
| O=C(Cc1cn2cc(Cl)ccc2n1)Nc1cncc(C(=O)c2cn(C3COC3)c3ncncc23)c1 [Example 223, 2-(6-chloroimidazo[1,2-a]pyridin-2-yl)-N-{5-[(7-oxetan-3-yl-7H-pyrrolo[2,3-d]pyrimidin-5-yl)carbonyl]pyridin-3-yl}acetamide] | 1660 nM |
| CCCc1cc(C(=O)Nc2cncc(C(=O)c3cn(C(C)C)c4ncncc34)c2)n(C)n1 [Example 437, 2-Methyl-5-propyl-2H-pyrazole-3-carboxylic acid [5-(7-isopropyl-7H-pyrrolo[2,3-d]pyrimidine-5-carbonyl)-pyridin-3-yl]amide] | 107 nM |
| CC(C)n1cc(C(=O)c2cncc(NC(=O)Cc3ccc4ocnc4c3)c2)c2cnc(N)nc21 [Example 246, N-{5-[(2-amino-7-isopropyl-7H-pyrrolo[2,3-d]pyrimidin-5-yl)carbonyl]pyridin-3-yl}-2-(1,3-benzoxazol-5-yl)acetamide] | 35.6 nM |
| O=C(Cc1ccc(Cl)cc1)Nc1cncc(C(=O)c2cn(C(CO)CO)c3ncncc23)c1 [Example 270, 2-(4-chlorophenyl)-N-(5-(7-(1,3-dihydroxypropan-2-yl)-7H-pyrrolo[2,3-d]pyrimidine-5-carbonyl)pyridin-3-yl)acetamide] | 343 nM |
